From US12398132B2, “Derivatives of 4-(imidazo[1,2-a]pyridin-3-yl)-n-(pyridinyl)pyrimidin-2-amine as therapeutic agents” (AUCENTRA THERAPEUTICS PTY LTD, priority 2019, dated 2025)

Legend:
[1] = system: U937; assay: Proliferation assay (resazurin/MTT), U937; assay type: cell-based; details: Homo sapiens, U-937, read-out: 72 h Growth inhibition GI50, U937 cells
[2] = target: CDK6/D3 (Homo sapiens, UniProt Q00534); assay: ADP Glo kinase assay, CDK6/D3; assay type: biochemical; details: CDK6D3; compound at 1 μM (values marked *); read-out: residual enzymatic activity (%) at 1 μM*
Protocol: Inhibition of FLT3(WT), FLT3(ITD) and FLT3(D835Y) and CDKs were determined using ADP Glo Kinase assays (Promega Corporation, Madison, WI, USA). […] Similarly, kinase reaction for CDK4/D1 and CDK6/D3 was performed with reaction buffer (40 nM Tris base pH 7.5, 20 mM MgCl2, 0.4 mM DTT), 0.1 mg/ml BSA and RB-CTF substrate (retinoblastoma protein1 C-terminal fraction). For CDK9/CyclinT1, the kinase reaction was performed with the standard assay buffer and Kinase Dilution Buffer and RBER-IRStide substrate. Half-maximal inhibition (IC50) values were calculated using a 4-parameter logistic non-linear regression model with Graphpad prism (Version 6.0). Apparent inhibition constants (Ki) values were calculated from Km (ATP) and IC50 values for the respective kinases.

[3] = target: CDK9/CyclinT1 (Homo sapiens, UniProt P50750); assay: ADP Glo kinase assay, CDK9/CyclinT1; assay type: biochemical; details: CDK9T1; for remaining activity at 1 µM: compound at 1 μM (values marked *), read-out: residual enzymatic activity (%) at 1 μM*
[4] = target: CDK2E1 (Homo sapiens, UniProt P24941); details: 1 µM
[5] = target: CDK7HMAT1 (Homo sapiens, UniProt P50613); details: 1 µM;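 further: kinase activity measured with an ADP-Glo luminescent kinase assay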
Protocol: Inhibition of FLT3(WT), FLT3(ITD) and FLT3(D835Y) and CDKs were determined using ADP Glo Kinase assays (Promega Corporation, Madison, WI, USA). […] The kinase reactions are run for an optimised time period (FLT3-WT: 120 min, FLT3-ITD: 80 min, FLT3-D835Y: 100 min) at room temperature and then the reaction was stopped by adding 5 μL of ADP Glo reagent. […] Positive and negative controls were performed in 0.5% DMSO in the presence and absence of each FLT3 kinase, respectively. […] Half-maximal inhibition (IC50) values were calculated using a 4-parameter logistic non-linear regression model with Graphpad prism (Version 6.0). Apparent inhibition constants (Ki) values were calculated from Km (ATP) and IC50 values for the respective kinases.

[6] = target: CDK1B (Homo sapiens, UniProt P06493); details: 1 µM
[7] = system: MV-4-11; assay: Proliferation assay (resazurin/MTT), MV-4-11; assay type: cell-based; details: Homo sapiens, MV4-11, read-out: 72 h Growth inhibition GI50, MV-4-11 cells
[8] = target: CDK4/D1 (Homo sapiens, UniProt P11802); assay: ADP Glo kinase assay, CDK4/D1; assay type: biochemical; details: CDK4D1; compound at 1 μM (values marked *); read-out: residual enzymatic activity (%) at 1 μM*
Chain of CDK4/D1 (P11802 whole entry, species assumed): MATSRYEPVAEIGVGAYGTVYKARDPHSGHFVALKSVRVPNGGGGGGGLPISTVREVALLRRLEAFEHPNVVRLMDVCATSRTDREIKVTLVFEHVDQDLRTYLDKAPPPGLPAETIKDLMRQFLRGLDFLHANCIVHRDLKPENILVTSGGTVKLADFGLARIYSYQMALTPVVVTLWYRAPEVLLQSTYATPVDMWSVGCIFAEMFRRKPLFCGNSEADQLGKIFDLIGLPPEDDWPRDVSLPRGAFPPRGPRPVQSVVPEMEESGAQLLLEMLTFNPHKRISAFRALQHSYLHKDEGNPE
Chain of CDK4/D1 (P24385 whole entry partner, species assumed): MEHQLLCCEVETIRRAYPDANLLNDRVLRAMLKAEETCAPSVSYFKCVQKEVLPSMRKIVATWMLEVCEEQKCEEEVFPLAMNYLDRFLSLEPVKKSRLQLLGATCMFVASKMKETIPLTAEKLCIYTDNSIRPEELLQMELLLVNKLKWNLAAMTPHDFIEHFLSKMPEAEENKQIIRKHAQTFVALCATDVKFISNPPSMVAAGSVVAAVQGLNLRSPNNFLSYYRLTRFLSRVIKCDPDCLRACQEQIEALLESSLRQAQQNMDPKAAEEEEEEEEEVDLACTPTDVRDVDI

Chain of CDK1B (P06493 whole entry): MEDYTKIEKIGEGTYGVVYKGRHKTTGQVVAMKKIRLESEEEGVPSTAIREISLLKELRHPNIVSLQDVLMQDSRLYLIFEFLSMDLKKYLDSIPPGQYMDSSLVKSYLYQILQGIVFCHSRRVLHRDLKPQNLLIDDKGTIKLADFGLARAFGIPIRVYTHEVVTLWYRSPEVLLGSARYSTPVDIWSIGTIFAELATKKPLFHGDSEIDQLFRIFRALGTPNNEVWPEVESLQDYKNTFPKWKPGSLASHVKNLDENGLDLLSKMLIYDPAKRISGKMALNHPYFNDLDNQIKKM
Chain of CDK1B (P14635 whole entry partner): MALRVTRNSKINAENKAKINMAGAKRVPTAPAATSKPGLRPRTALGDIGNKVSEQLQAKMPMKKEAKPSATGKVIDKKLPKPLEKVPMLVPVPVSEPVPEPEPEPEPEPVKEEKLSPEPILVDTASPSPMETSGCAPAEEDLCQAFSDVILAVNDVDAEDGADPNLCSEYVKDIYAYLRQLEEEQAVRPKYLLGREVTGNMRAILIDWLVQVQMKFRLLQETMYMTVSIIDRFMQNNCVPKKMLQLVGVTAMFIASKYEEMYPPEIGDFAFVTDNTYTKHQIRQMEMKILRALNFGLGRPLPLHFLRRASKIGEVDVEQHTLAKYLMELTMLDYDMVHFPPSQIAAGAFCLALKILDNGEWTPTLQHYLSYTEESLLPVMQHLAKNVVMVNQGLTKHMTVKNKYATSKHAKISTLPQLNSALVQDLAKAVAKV
Chain of CDK7HMAT1 (P50613 whole entry): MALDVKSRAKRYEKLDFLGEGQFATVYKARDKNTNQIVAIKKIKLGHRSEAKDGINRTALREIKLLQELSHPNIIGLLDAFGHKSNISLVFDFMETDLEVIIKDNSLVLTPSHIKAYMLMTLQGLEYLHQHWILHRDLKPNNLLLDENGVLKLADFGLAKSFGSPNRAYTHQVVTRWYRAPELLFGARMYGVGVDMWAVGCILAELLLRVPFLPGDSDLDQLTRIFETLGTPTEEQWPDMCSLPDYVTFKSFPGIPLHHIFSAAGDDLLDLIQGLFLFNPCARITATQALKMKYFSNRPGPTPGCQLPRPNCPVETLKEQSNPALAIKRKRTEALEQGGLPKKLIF
Chain of CDK7HMAT1 (P51946 whole entry partner): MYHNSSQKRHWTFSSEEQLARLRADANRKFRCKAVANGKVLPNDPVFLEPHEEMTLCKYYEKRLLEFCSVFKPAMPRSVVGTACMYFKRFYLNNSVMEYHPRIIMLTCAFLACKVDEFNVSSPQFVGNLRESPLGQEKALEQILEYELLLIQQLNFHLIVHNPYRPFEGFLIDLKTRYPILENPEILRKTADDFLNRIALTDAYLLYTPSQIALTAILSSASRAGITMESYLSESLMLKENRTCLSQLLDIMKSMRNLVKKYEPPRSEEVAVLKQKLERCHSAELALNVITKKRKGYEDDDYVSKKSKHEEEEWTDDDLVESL
Chain of CDK7HMAT1 (P51948 whole entry partner): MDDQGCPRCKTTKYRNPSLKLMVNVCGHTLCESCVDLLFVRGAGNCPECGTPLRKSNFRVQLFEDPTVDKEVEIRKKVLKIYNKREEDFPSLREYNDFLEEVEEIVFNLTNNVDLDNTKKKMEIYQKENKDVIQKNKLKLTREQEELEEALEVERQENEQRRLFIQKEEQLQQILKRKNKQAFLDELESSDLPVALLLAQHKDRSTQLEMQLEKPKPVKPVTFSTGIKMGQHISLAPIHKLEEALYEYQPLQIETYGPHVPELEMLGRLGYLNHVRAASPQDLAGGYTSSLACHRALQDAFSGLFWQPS
Chain of CDK9/CyclinT1 (P50750 whole entry, species assumed): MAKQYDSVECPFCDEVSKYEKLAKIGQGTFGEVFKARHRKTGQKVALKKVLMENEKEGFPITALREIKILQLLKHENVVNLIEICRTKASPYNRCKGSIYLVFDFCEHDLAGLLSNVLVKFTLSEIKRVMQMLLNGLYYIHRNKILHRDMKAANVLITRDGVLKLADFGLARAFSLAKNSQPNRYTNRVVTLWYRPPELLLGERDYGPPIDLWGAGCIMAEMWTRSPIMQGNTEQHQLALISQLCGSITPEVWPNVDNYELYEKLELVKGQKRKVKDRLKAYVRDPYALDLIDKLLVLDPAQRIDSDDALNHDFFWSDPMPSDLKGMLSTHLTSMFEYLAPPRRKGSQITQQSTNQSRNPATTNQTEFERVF
Chain of CDK9/CyclinT1 (O60563 whole entry partner, species assumed): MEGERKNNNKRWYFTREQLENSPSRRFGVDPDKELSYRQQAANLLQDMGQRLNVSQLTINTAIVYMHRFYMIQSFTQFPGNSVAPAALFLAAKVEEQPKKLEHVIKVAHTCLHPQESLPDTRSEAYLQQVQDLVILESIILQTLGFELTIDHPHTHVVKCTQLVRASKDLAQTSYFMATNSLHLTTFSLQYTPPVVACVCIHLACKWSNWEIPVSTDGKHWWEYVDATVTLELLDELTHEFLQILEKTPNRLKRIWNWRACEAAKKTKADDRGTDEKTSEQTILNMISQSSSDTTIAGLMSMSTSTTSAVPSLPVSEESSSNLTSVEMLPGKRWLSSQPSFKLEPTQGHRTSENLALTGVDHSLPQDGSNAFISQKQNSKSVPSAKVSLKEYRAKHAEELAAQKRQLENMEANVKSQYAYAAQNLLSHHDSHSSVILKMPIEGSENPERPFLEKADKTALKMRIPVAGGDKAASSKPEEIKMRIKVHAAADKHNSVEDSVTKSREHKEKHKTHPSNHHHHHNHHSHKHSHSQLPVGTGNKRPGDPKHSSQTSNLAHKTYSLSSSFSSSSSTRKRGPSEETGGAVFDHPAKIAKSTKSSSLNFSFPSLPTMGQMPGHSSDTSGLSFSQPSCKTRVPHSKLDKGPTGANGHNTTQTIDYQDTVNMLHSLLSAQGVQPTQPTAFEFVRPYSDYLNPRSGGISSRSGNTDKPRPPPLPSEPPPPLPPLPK
Chain of CDK6/D3 (Q00534 whole entry, species assumed): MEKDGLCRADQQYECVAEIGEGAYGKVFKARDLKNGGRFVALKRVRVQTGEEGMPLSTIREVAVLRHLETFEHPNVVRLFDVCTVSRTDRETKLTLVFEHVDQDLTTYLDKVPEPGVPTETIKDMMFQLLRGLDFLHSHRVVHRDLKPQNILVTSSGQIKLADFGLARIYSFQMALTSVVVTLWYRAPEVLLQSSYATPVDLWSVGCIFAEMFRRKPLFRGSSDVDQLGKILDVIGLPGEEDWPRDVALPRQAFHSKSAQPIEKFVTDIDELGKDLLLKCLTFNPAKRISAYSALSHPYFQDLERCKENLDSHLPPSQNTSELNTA
Chain of CDK6/D3 (P30281 whole entry partner, species assumed): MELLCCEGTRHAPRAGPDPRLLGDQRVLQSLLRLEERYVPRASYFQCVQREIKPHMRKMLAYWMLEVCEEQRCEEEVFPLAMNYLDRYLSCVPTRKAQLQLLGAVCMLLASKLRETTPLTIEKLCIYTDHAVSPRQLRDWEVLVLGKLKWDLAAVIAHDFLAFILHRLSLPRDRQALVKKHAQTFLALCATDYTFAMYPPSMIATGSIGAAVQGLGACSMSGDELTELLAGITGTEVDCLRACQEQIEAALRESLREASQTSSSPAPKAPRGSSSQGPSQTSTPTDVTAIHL

Compound: CC(=O)N1CCN(c2ccc(Nc3nccc(-c4cnc5ccc(Nc6ccccc6)cn45)n3)nc2)CC1 [Cmpd 28, 1-(4-(6-((4-(6-(Phenylamino)imidazo[1,2-a]pyridin-3-yl)pyrimidin-2-yl)amino)pyridin-3-yl)piperazin-1-yl)ethan-1-one]
- GI50 [1]: 1490 nM
- remaining activity at 1 µM [2]: 80%
- remaining activity at 1 µM [3]: 61%
- activity [4]: 86%
- activity [5]: 91%
- activity [6]: 98%
- GI50 [7]: 6 nM
- remaining activity at 1 µM [8]: 77%

Compound: CC(=O)N1CCN(c2ccc(Nc3ncc(F)c(-c4cnc5ccccn45)n3)nc2)CC1 [Cmpd 29, 1-(4-(6-((5-Fluoro-4-(imidazo[1,2-a]pyridin-3-yl)pyrimidin-2-yl)amino)pyridin-3-yl)piperazin-1-yl)ethan-1-one]
- GI50 [1]: 393 nM
- remaining activity at 1 µM [2]: 59%
- remaining activity at 1 µM [3]: 36%
- activity [4]: 47%
- activity [5]: 82%
- activity [6]: 100%
- GI50 [7]: 43 nM
- remaining activity at 1 µM [8]: 59%

Compound: CC(=O)N1CCN(c2ccc(Nc3ncc(F)c(-c4cnc5ccc(F)cn45)n3)nc2)CC1 [Cmpd 30, 1-(4-(6-((5-Fluoro-4-(6-fluoroimidazo[1,2-a]pyridin-3-yl)pyrimidin-2-yl)amino)pyridin-3-yl)piperazin-1-yl)ethan-1-one]
- GI50 [1]: 4040 nM
- remaining activity at 1 µM [2]: 58%
- remaining activity at 1 µM [3]: 33%
- activity [4]: 51%
- activity [5]: 77%
- activity [6]: 96%
- GI50 [7]: 72 nM
- remaining activity at 1 µM [8]: 55%

Compound: CC(=O)N1CCN(c2ccc(Nc3ncc(F)c(-c4cnc5ccc(C(F)(F)F)cn45)n3)nc2)CC1 [Cmpd 32, 1-(4-(6-((5-Fluoro-4-(6-(trifluoromethyl)imidazo[1,2-a]pyridin-3-yl)pyrimidin-2-yl)amino)pyridin-3-yl)piperazin-1-yl)ethan-1-one]
- GI50 [1]: 821 nM
- remaining activity at 1 µM [2]: 70%
- remaining activity at 1 µM [3]: 82%
- activity [4]: 65%
- activity [5]: 84%
- activity [6]: 93%
- GI50 [7]: 24 nM
- remaining activity at 1 µM [8]: 67%

Compound: CC(=O)N1CCN(c2ccc(Nc3nccc(-c4cnc5ccc(-c6coc7ccccc67)cn45)n3)nc2)CC1 [Cmpd 33, 1-(4-(6-((4-(6-(Benzofuran-3-yl)imidazo[1,2-a]pyridin-3-yl)pyrimidin-2-yl)amino)pyridin-3-yl)piperazin-1-yl)ethan-1-one]
- GI50 [1]: 1860 nM
- remaining activity at 1 µM [2]: 79%
- remaining activity at 1 µM [3]: 72%
- activity [4]: 84%
- activity [5]: 88%
- activity [6]: 98%
- GI50 [7]: 3 nM
- remaining activity at 1 µM [8]: 60%

Compound: CC(=O)N1CCN(c2ccc(Nc3nccc(-c4cnc5ccc(-c6cn(S(=O)(=O)c7ccccc7)c7ccccc67)cn45)n3)nc2)CC1 [Cmpd 34, 1-(4-(6-((4-(6-(1-(Phenylsulfonyl)-1H-indol-3-yl)imidazo[1,2-a]pyridin-3-yl)pyrimidin-2-yl)amino)pyridin-3-yl)piperazin-1-yl)ethan-1-one]
- GI50 [1]: 2490 nM
- remaining activity at 1 µM [2]: 77%
- remaining activity at 1 µM [3]: 100%
- activity [4]: 75%
- activity [5]: 80%
- activity [6]: 99%
- GI50 [7]: 66 nM
- remaining activity at 1 µM [8]: 55%

Compound: CC(=O)N1CCN(c2ccc(Nc3nccc(-c4cnc5ccc(-c6csc7ccccc67)cn45)n3)nc2)CC1 [Cmpd 35, 1-(4-(6-((4-(6-(Benzo[b]thiophen-3-yl)imidazo[1,2-a]pyridin-3-yl)pyrimidin-2-yl)amino)pyridin-3-yl)piperazin-1-yl)ethan-1-one]
- GI50 [1]: > 10000 nM
- remaining activity at 1 µM [2]: 76%
- remaining activity at 1 µM [3]: 91%
- activity [4]: 100%
- activity [5]: 81%
- activity [6]: 81%
- GI50 [7]: 7 nM
- remaining activity at 1 µM [8]: 77%

Compound: CC(=O)N1CCN(c2ccc(Nc3nccc(-c4cnc5ccc(-c6cccc7[nH]ccc67)cn45)n3)nc2)CC1 [Cmpd 36, 1-(4-(6-((4-(6-(1H-Indol-4-yl)imidazo[1,2-a]pyridin-3-yl)pyrimidin-2-yl)amino)pyridin-3-yl)piperazin-1-yl)ethan-1-one]
- GI50 [1]: 1360 nM
- remaining activity at 1 µM [2]: 76%
- remaining activity at 1 µM [3]: 99%
- activity [4]: 89%
- activity [5]: 96%
- activity [6]: 96%
- GI50 [7]: 12 nM
- remaining activity at 1 µM [8]: 58%

Compound: CC(=O)N1CCN(c2ccc(Nc3nccc(-c4cnc5ccc(-c6cc7ccccc7[nH]6)cn45)n3)nc2)CC1 [Cmpd 37, 1-(4-(6-((4-(6-(1H-Indol-2-yl)imidazo[1,2-a]pyridin-3-yl)pyrimidin-2-yl)amino)pyridin-3-yl)piperazin-1-yl)ethan-1-one]
- GI50 [1]: 2420 nM
- remaining activity at 1 µM [2]: 78%
- remaining activity at 1 µM [3]: 39%
- activity [4]: 91%
- activity [5]: 103%
- activity [6]: 96%
- GI50 [7]: 10 nM
- remaining activity at 1 µM [8]: 78%

Compound: CC(=O)N1CCN(c2ccc(Nc3nccc(-c4cnc5ccc(-c6cn(S(=O)(=O)c7ccccc7)c7ncccc67)cn45)n3)nc2)CC1 [Cmpd 38, 1-(4-(6-((4-(6-(1-(Phenylsulfonyl)-1H-pyrrolo[2,3-b]pyridin-3-yl)imidazo[1,2-a]pyridin-3-yl)pyrimidin-2-yl)amino)pyridin-3-yl)piperazin-1-yl)ethan-1-one]
- GI50 [1]: 2910 nM
- remaining activity at 1 µM [2]: 70%
- remaining activity at 1 µM [3]: 85%
- activity [4]: 82%
- activity [5]: 102%
- activity [6]: 99%
- GI50 [7]: 44 nM
- remaining activity at 1 µM [8]: 70%

Compound: CC(=O)N1CCN(c2ccc(Nc3nccc(-c4cnc5ccc(-c6cn(C)c7ccccc67)cn45)n3)nc2)CC1 [Cmpd 40, 1-(4-(6-((4-(6-(1-Methyl-1H-indol-3-yl)imidazo[1,2-a]pyridin-3-yl)pyrimidin-2-yl)amino)pyridin-3-yl)piperazin-1-yl)ethan-1-one]
- GI50 [1]: 1340 nM
- remaining activity at 1 µM [2]: 78%
- remaining activity at 1 µM [3]: 82%
- activity [4]: 93%
- activity [5]: 104%
- activity [6]: 97%
- GI50 [7]: 1 nM
- remaining activity at 1 µM [8]: 55%

Compound: CC(=O)N1CCN(c2ccc(Nc3nccc(-c4cnc5ccc(-c6c[nH]c7ccccc67)cn45)n3)nc2)CC1 [Cmpd 41, 1-(4-(6-((4-(6-(1H-Indol-3-yl)imidazo[1,2-a]pyridin-3-yl)pyrimidin-2-yl)amino)pyridin-3-yl)piperazin-1-yl)ethan-1-one]
- GI50 [1]: 1280 nM
- remaining activity at 1 µM [2]: 89%
- remaining activity at 1 µM [3]: 42%
- activity [4]: 81%
- activity [5]: 79%
- activity [6]: 98%
- GI50 [7]: 1 nM
- remaining activity at 1 µM [8]: 54%

Compound: CC(=O)N1CCN(c2ccc(Nc3nccc(-c4cnc5ccc(-c6c[nH]c7ncccc67)cn45)n3)nc2)CC1 [Cmpd 42, 1-(4-(6-((4-(6-(1H-pyrrolo[2,3-b]pyridin-3-yl)imidazo[1,2-a]pyridin-3-yl)pyrimidin-2-yl)amino)pyridin-3-yl)piperazin-1-yl)ethan-1-one]
- GI50 [1]: 1560 nM
- remaining activity at 1 µM [2]: 64%
- Ki ([3]; apparent Ki calculated from Km (ATP) and IC50, read-out: CDK inhibition Ki): 607 nM
- activity [4]: 46%
- activity [5]: 80%
- activity [6]: 95%
- GI50 [7]: 5 nM
- remaining activity at 1 µM [8]: 52%
